Reference: patent US20240116985A1, “STAPLED PEPTIDES AND METHODS THEREOF” (priority 2020, published 2024)
In brackets after ≈: the same amount, converted by molar mass. Read-outs that look alike come from different tables or passages of the source.

Assays:
[1] = molecular target: T1, full-length beta-Catenin (Uniprot ID P35222) (Homo sapiens, UniProt P35222); experiment: Fluorescence polarization IC50 (beta-catenin / 5FAM-TCF4 10-53 competition); format: binding
T1 construct: 10 nM full-length beta-Catenin (Uniprot ID P35222)
T1 sequence (P35222 1-781): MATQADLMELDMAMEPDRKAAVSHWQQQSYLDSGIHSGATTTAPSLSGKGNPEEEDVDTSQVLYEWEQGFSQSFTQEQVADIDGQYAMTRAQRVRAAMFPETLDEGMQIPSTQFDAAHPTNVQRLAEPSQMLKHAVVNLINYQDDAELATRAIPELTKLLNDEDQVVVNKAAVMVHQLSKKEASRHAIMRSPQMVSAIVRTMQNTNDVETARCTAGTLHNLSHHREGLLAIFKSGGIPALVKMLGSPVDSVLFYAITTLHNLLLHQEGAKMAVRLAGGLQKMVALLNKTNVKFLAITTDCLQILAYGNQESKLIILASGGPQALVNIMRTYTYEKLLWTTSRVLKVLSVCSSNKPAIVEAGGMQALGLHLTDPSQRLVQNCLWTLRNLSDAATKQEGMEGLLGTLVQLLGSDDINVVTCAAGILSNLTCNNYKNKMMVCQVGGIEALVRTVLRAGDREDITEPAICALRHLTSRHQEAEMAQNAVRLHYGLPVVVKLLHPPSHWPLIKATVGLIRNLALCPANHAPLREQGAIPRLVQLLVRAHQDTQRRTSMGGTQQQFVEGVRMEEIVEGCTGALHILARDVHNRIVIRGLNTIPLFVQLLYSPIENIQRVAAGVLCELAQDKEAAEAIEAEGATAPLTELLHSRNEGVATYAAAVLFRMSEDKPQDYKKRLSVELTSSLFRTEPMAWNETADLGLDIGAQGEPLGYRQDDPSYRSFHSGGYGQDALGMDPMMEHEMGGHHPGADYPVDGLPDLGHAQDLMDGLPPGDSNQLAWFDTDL

CHI Log D procedure = format: physicochemical; conditions: for CHI Log D: pH 7.4; for chromatographic logD: pH 7.4, CHI Log D
Solubility in PBS = format: physicochemical
Summary of the method: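 The PBS solution was ultracentrifuged and the supernatant analyzed by HPLC. Its peak area was divided by that of a 50 μM peptide DMSO reference injection and multiplied by 50 uM to give solubility.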

[2] = molecular target: T2, beta-catenin/TCF4 engagement (Homo sapiens, UniProt P35222); experiment: Nano-BRET target engagement assay (B-cat-Halo & TCF4-Luc in HEK293 cells); format: cell-based; conditions: for inhibition at 10 µM: HEK293, @ 10 uM, read-out: NanoBRET % inh @ 10 uM
T2 construct: expressed in transfected cells; host or cells: HEK293
T2 sequence (P35222 1-781): T1 sequence (P35222 1-781)

Compound	IC50 ([1]; fluorescence polarization, read-out: beta-Catenin FP IC50) [µM]	IC50 ([1]; read-out: FP EC50) [µM]	CHI Log D (CHI Log D procedure)	Solubility (Solubility in PBS) [µM]	IC50 ([2]; Abs IC50, read-out: NanoBRET Abs IC50) [µM]	IC50 ([2]; absolute IC50, read-out: NanoBRET Abs IC50) [µM]	IC50 ([1]; read-out: beta-Catenin FP IC50) [µM]	IC50 ([2]; read-out: NanoBRET Abs IC50) [µM]	inhibition at 10 µM [2] [%]	chromatographic logD (CHI Log D procedure)	IC50 ([2]; read-out: NanoBRET IC50) [µM]	Solubility (Solubility in PBS; Solubility (uM)) [µM]
CC(=O)N1CCC[C@]12CC=CCCCC1(CCCC=CCCCCCC[C@@](C)(C(=O)N[C@@H](Cc3ccccc3)C(=O)N[C@@H](Cc3csc4ccccc34)C(=O)N[C@@H](CC(N)=O)C(N)=O)NC(=O)[C@H](CC(N)=O)NC(=O)[C@H](Cc3ccccc3)NC(=O)[C@H](C)NC(=O)[C@H](C)NC(=O)[C@H](CCC(=O)O)NC(=O)[C@H](CC(=O)O)NC1=O)NC(=O)[C@H](CC(C)C)NC(=O)[C@H](CC(=O)O)NC2=O (stereo partly drawn) [I-753, Ac-PL3-Asp-Leu-B5-Asp-Glu-Ala-Ala-Phe-Asn-S8-Phe-BztA-Asn-NH2]	0.014	0.014	2.432	50 (≈ 92.8 µg/mL)	10	10						
CC(=O)N1CCC[C@]12CC=CCCCC1(CCCC=CCCCCOC(=O)N3CC[C@@](C(=O)N[C@@H](Cc4ccsc4)C(=O)N[C@@H](Cc4csc5ccccc45)C(=O)N[C@@H](CCC(N)=O)C(N)=O)(C3)NC(=O)[C@H](CC(N)=O)NC(=O)[C@H](Cc3ccccc3)NC(=O)[C@H](C)NC(=O)[C@H](C)NC(=O)[C@H](CC(=O)O)NC(=O)[C@H](CC(=O)O)NC1=O)NC(=O)[C@H](CC(C)(C)C)NC(=O)[C@H](CC(=O)O)NC2=O (stereo partly drawn) [I-767, Ac-PL3-Asp-Npg-B5-Asp-Asp-Ala-Ala-Phe-Asn-PyrS3-3Thi-BztA-Gln-NH2]		0.012	2.004	50 (≈ 96.6 µg/mL)			0.012	37.2				
CC(=O)N1CCC[C@]12CC=CCCCC1(CCCC=CCCCCOC(=O)N3CC[C@@](C(=O)N[C@@H](Cc4ccsc4)C(=O)N[C@@H](Cc4csc5ccccc45)C(=O)N[C@@H](Cc4c[nH]cn4)C(N)=O)(C3)NC(=O)[C@H](CC(N)=O)NC(=O)[C@H](Cc3ccccc3)NC(=O)[C@H](C)NC(=O)[C@H](C)NC(=O)[C@H](CC(=O)O)NC(=O)[C@H](CC(=O)O)NC1=O)NC(=O)[C@H](CC(C)(C)C)NC(=O)[C@H](CC(=O)O)NC2=O (stereo partly drawn) [I-775, Ac-PL3-Asp-Npg-B5-Asp-Asp-Ala-Ala-Phe-Asn-PyrS3-3Thi-BztA-His-NH2]		0.007	2.092	47 (≈ 91.2 µg/mL)			0.006	> 20	5.1			
CC(=O)N1CCC[C@]12CC=CCCCC1(CCCC=CCCCOC(=O)N3CC[C@@](C(=O)N[C@@H](Cc4ccccc4)C(=O)N[C@@H](Cc4csc5ccccc45)C(=O)N[C@@H](Cc4c[nH]cn4)C(N)=O)(C3)NC(=O)[C@H](CC(N)=O)NC(=O)[C@H](Cc3ccccc3)NC(=O)[C@H](C)NC(=O)[C@H](C)NC(=O)[C@H](CC(=O)O)NC(=O)[C@H](CC(=O)O)NC1=O)NC(=O)[C@H](CC(C)(C)C)NC(=O)[C@H](CC(=O)O)NC2=O (stereo partly drawn) [I-777, Ac-PL3-Asp-Npg-B5-Asp-Asp-Ala-Ala-Phe-Asn-PyrS2-Phe-BztA-His-NH2]				50 (≈ 96.1 µg/mL)			0.005	19.8	24.5	2.15	14.4	
CC(=O)N1CCC[C@]12CC=CCCCC1(CCCC=CCCCOC(=O)N3CC[C@@](C(=O)N[C@@H](Cc4cccs4)C(=O)N[C@@H](Cc4csc5ccccc45)C(=O)N[C@@H](CCC(N)=O)C(N)=O)(C3)NC(=O)[C@H](CC(N)=O)NC(=O)[C@H](Cc3ccccc3)NC(=O)[C@H](C)NC(=O)[C@H](C)NC(=O)[C@H](CC(=O)O)NC(=O)[C@H](CC(=O)O)NC1=O)NC(=O)[C@H](CC(C)(C)C)NC(=O)[C@H](CC(=O)O)NC2=O (stereo partly drawn) [I-778, Ac-PL3-Asp-Npg-B5-Asp-Asp-Ala-Ala-Phe-Asn-PyrS2-2Thi-BztA-Gln-NH2]							0.008	11.2		2.04		43 (≈ 82.5 µg/mL)
COc1ccccc1C[C@H](NC(=O)[C@]12CCN(C1)C(=O)OCCCC=CCCCC1(CCCC=CC[C@]3(CCCN3C(C)=O)C(=O)N[C@@H](CC(=O)O)C(=O)N[C@@H](CC(C)(C)C)C(=O)N1)C(=O)N[C@@H](CC(=O)O)C(=O)N[C@@H](CC(=O)O)C(=O)N[C@@H](C)C(=O)N[C@@H](C)C(=O)N[C@@H](Cc1ccccc1)C(=O)N[C@@H](CC(N)=O)C(=O)N2)C(=O)N[C@@H](Cc1csc2ccccc12)C(=O)N[C@@H](CCC(N)=O)C(N)=O (stereo partly drawn) [I-780, Ac-PL3-Asp-Npg-B5-Asp-Asp-Ala-Ala-Phe-Asn-PyrS2-2OMeF-BztA-Gln-NH2]				50 (≈ 97.1 µg/mL)			0.009	20.7		2.08	17.1	
COc1ccccc1C[C@H](NC(=O)[C@]12CCN(C1)C(=O)OCCCC=CCCCC1(CCCC=CC[C@]3(CCCN3C(C)=O)C(=O)N[C@@H](CC(=O)O)C(=O)N[C@@H](CC(C)(C)C)C(=O)N1)C(=O)N[C@@H](CC(=O)O)C(=O)N[C@@H](CC(=O)O)C(=O)N[C@@H](C)C(=O)N[C@@H](C)C(=O)N[C@@H](Cc1ccccc1)C(=O)N[C@@H](CC(N)=O)C(=O)N2)C(=O)N[C@@H](Cc1csc2ccccc12)C(=O)N[C@@H](Cc1c[nH]cn1)C(N)=O (stereo partly drawn) [I-781, Ac-PL3-Asp-Npg-B5-Asp-Asp-Ala-Ala-Phe-Asn-PyrS2-2OMeF-BztA-His-NH2]							0.005		24	2.16	11.6	41 (≈ 80 µg/mL)
CC(=O)N1CCC[C@]12CC=CCCCC1(CCCC=CCCCOC(=O)N3CC[C@@](C(=O)N[C@@H](Cc4ccccc4C)C(=O)N[C@@H](Cc4csc5ccccc45)C(=O)N[C@@H](Cc4c[nH]cn4)C(N)=O)(C3)NC(=O)[C@H](CC(N)=O)NC(=O)[C@H](Cc3ccccc3)NC(=O)[C@H](C)NC(=O)[C@H](C)NC(=O)[C@H](CC(=O)O)NC(=O)[C@H](CC(=O)O)NC1=O)NC(=O)[C@H](CC(C)(C)C)NC(=O)[C@H](CC(=O)O)NC2=O (stereo partly drawn) [I-782, Ac-PL3-Asp-Npg-B5-Asp-Asp-Ala-Ala-Phe-Asn-PyrS2-2MeF-BztA-His-NH2]							0.006	12.2		2.21		38 (≈ 73.5 µg/mL)
CC(=O)N1CCC[C@]12CC=CCCCC1(CCCC=CCCCOC(=O)N3CC[C@@](C(=O)N[C@@H](Cc4ccccc4Cl)C(=O)N[C@@H](Cc4csc5ccccc45)C(=O)N[C@@H](CCC(N)=O)C(N)=O)(C3)NC(=O)[C@H](CC(N)=O)NC(=O)[C@H](Cc3ccccc3)NC(=O)[C@H](C)NC(=O)[C@H](C)NC(=O)[C@H](CC(=O)O)NC(=O)[C@H](CC(=O)O)NC1=O)NC(=O)[C@H](CC(C)(C)C)NC(=O)[C@H](CC(=O)O)NC2=O (stereo partly drawn) [I-783, Ac-PL3-Asp-Npg-B5-Asp-Asp-Ala-Ala-Phe-Asn-PyrS2-2C1F-BztA-Gln-NH2]							0.007	6.2	50.9	2.19	7.5	48 (≈ 93.4 µg/mL)
CC(=O)N1CCC[C@]12CC=CCCCC1(CCCC=CCCCOC(=O)N3CC[C@@](C(=O)N[C@@H](Cc4ccccc4Cl)C(=O)N[C@@H](Cc4csc5ccccc45)C(=O)N[C@@H](Cc4c[nH]cn4)C(N)=O)(C3)NC(=O)[C@H](CC(N)=O)NC(=O)[C@H](Cc3ccccc3)NC(=O)[C@H](C)NC(=O)[C@H](C)NC(=O)[C@H](CC(=O)O)NC(=O)[C@H](CC(=O)O)NC1=O)NC(=O)[C@H](CC(C)(C)C)NC(=O)[C@H](CC(=O)O)NC2=O (stereo partly drawn) [I-784, Ac-PL3-Asp-Npg-B5-Asp-Asp-Ala-Ala-Phe-Asn-PyrS2-2C1F-BztA-His-NH2]							0.006	14.5	35.1	2.29	12.1	21 (≈ 41.1 µg/mL)
